Earlier results as cited in patent US20220175741A1, “COMPOSITIONS, DEVICES AND METHODS FOR TREATING AUTISM” (priority 2017, published 2022).

Assays:
[1] = tested on: child's autistic symptoms; conditions: one child; Rodakis, Microbial Ecology in Health & Disease 2015
children with Autism = conditions: within a few weeks of treatment; Sandler et al, Journal of Child Neurology 2000

| SMILES | autistic symptoms [1] | behavioural changes of autistic children (children with Autism) |
| --- | --- | --- |
| CC1(C)S[C@@H]2[C@H](NC(=O)[C@H](N)c3ccc(O)cc3)C(=O)N2[C@H]1C(=O)O [amoxycillin] | reversed almost completely | – |
| CN[C@H](CC(C)C)C(=O)N[C@H]1C(=O)N[C@@H](CC(N)=O)C(=O)N[C@H]2C(=O)N[C@H]3C(=O)N[C@H](C(=O)N[C@H](C(=O)O)c4cc(O)cc(O)c4-c4cc3ccc4O)[C@H](O)c3ccc(c(Cl)c3)Oc3cc2cc(c3O[C@@H]2O[C@H](CO)[C@@H](O)[C@H](O)[C@H]2O[C@H]2C[C@](C)(N)[C@H](O)[C@H](C)O2)Oc2ccc(cc2Cl)[C@H]1O [vancomycin] | – | reversal of behavioural changes and progress to normality |
